From ChEMBL document CHEMBL3091402, “Identification of clinical candidates from the benzazepine class of histamine H3 receptor antagonists” (Bioorg Med Chem Lett, 2013)

Columns and labels:
Rattus norvegicus [1] = experiment: Reversal of RAMH-induced dipsogenia in po dosed Lister Hooded rat treated 2 hrs before RAMH challenge measured after 1 hr; type: functional
Histamine H3 receptor [2] = biological target: T1, Histamine H3 receptor (Rattus norvegicus, UniProt Q9QYN8); experiment: Displacement of [3H]-R-alpha-ethylhistamine from histamine H3 receptor in rat cerebral cortical tissue membranes after 45 mins by liquid scintillation spectrometry
Rattus norvegicus [3] = experiment: Ex vivo binding affinity to histamine H3 receptor in po dosed rat cerebral cortex using [3H]-R-alpha-ethylhistamine after 2 hrs by HPLC analysis; type: functional
Rattus norvegicus [4] = experiment: Ex vivo binding affinity to histamine H3 receptor in rat cerebral cortex using [3H]-R-alpha-ethylhistamine at 3 mg/kg, po after 3 hrs by HPLC analysis; type: functional
Histamine H3 receptor [5] = biological target: Histamine H3 receptor (Homo sapiens, UniProt Q9Y5N1); experiment: Antagonist activity at human histamine H3 receptor expressed in CHOK1 cells assessed as inhibition of GTPgammaS binding; type: functional, cell-based, CHO-K1
[6] = Ratio of drug level in brain to blood in rat at 3 mg/kg, po; type: ADME, organism-based; set-up: dose 3 mg/kg, route oral
Blood = experiment: Drug level in rat blood at 3 mg/kg, po; type: ADME, organism-based; set-up: dose 3 mg/kg, route oral; conditions: in vivo, read-out: Drug uptake
Rattus norvegicus [7] = experiment: Reversal of RAMH-induced dipsogenia in Lister Hooded rat at 3 mg/kg, po treated 2 hrs before RAMH challenge measured after 1 hr; type: functional
Liver microsome [8] = experiment: Intrinsic clearance in rat liver microsomes; type: ADME
[9] = Ratio of drug level in brain to blood in rat at 3 mg/kg, po after 1 hr; type: ADME, organism-based; set-up: dose 3 mg/kg, route oral
Rattus norvegicus [10] = experiment: Ex vivo binding affinity to histamine H3 receptor in rat cerebral cortex using [3H]-R-alpha-ethylhistamine at 0.3 mg/kg, po after 3 hrs by HPLC analysis; type: functional
Histamine H3 receptor [11] = biological target: T1, Histamine H3 receptor; experiment: Displacement of [3H]-R-alpha-ethylhistamine from rat histamine H3 receptor expressed in HEK293 cells after 45 mins by liquid scintillation spectrometry; type: cell-based
hERG (KCNH2) = hERG (KCNH2) (Homo sapiens, UniProt Q12809); experiment: Inhibition of human ERG at 10 uM by patch clamp experiment
[12] = Time dependent inhibition of CYP450 (unknown origin); type: ADME, Homo sapiens
[13] = Aqueous solubility of the compound; type: physicochemical
Liver microsome [14] = experiment: Intrinsic clearance in human liver microsomes; type: ADME
Histamine H1 receptor = Histamine H1 receptor (Homo sapiens, UniProt P35367); experiment: Binding affinity to human histamine H1 receptor
Histamine H4 receptor = Histamine H4 receptor (Homo sapiens, UniProt Q9H3N8); experiment: Binding affinity to human histamine H4 receptor
Histamine H2 receptor = Histamine H2 receptor (Homo sapiens, UniProt P25021); experiment: Binding affinity to human histamine H2 receptor
Histamine H2 receptor, sequence (P25021 whole entry): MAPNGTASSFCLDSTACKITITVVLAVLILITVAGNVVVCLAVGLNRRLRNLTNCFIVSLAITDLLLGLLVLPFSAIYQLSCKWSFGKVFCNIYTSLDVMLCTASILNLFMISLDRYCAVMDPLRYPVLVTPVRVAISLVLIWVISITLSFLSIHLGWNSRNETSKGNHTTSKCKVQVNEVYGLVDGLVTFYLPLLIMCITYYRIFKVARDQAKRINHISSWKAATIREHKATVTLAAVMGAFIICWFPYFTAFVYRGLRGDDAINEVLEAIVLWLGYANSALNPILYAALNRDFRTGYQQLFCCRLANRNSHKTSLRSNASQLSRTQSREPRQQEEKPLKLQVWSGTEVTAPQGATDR

T1 sequence (Q9QYN8 whole entry): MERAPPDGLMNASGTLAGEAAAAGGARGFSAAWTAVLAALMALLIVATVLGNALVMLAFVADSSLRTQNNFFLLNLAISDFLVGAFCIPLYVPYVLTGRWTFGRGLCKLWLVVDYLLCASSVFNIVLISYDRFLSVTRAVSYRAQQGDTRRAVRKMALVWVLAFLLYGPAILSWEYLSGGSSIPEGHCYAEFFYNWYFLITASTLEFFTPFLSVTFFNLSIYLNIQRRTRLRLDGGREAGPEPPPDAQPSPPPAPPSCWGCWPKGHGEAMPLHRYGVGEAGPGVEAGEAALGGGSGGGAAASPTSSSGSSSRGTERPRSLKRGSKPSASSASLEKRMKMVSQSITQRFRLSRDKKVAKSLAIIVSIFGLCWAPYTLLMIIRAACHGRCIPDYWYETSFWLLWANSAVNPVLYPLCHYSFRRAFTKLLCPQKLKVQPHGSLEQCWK
Histamine H3 receptor (Homo sapiens, UniProt Q9Y5N1), sequence (Q9Y5N1 whole entry): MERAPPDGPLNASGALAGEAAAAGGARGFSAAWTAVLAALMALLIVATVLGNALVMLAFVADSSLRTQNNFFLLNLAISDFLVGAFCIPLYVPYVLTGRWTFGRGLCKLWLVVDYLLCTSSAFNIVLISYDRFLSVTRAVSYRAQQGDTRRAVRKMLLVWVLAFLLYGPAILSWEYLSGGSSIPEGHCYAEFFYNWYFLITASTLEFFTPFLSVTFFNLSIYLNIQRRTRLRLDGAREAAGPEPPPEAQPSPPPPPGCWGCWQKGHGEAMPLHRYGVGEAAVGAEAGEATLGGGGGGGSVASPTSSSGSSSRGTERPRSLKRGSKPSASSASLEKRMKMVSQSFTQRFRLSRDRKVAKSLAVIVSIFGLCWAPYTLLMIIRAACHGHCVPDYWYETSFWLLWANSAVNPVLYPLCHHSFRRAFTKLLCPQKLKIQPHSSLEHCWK
Histamine H1 receptor, sequence (P35367 whole entry): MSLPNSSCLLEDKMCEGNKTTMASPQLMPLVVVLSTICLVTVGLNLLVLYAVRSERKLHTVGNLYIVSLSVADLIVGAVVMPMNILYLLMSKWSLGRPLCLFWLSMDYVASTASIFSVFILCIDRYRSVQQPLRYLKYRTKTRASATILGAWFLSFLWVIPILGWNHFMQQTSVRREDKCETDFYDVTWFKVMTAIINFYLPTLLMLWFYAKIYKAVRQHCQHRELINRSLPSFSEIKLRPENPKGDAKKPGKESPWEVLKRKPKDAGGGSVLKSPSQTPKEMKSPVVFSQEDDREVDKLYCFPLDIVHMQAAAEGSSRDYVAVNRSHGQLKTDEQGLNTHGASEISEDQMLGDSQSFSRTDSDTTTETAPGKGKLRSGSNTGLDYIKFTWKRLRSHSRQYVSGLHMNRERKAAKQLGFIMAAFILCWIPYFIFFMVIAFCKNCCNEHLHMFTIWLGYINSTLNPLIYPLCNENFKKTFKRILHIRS
Histamine H4 receptor, sequence (Q9H3N8 whole entry): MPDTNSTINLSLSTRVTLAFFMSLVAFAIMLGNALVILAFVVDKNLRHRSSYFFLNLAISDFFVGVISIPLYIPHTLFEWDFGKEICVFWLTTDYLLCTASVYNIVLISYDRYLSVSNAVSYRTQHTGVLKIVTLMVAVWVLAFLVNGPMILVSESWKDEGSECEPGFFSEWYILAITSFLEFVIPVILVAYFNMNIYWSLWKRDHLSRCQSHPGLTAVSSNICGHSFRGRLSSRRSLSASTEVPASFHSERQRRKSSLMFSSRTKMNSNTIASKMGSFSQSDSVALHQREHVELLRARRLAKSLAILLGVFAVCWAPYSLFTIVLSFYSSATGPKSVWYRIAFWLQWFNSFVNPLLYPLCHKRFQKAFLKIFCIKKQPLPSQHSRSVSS
hERG (KCNH2), sequence (Q12809 whole entry): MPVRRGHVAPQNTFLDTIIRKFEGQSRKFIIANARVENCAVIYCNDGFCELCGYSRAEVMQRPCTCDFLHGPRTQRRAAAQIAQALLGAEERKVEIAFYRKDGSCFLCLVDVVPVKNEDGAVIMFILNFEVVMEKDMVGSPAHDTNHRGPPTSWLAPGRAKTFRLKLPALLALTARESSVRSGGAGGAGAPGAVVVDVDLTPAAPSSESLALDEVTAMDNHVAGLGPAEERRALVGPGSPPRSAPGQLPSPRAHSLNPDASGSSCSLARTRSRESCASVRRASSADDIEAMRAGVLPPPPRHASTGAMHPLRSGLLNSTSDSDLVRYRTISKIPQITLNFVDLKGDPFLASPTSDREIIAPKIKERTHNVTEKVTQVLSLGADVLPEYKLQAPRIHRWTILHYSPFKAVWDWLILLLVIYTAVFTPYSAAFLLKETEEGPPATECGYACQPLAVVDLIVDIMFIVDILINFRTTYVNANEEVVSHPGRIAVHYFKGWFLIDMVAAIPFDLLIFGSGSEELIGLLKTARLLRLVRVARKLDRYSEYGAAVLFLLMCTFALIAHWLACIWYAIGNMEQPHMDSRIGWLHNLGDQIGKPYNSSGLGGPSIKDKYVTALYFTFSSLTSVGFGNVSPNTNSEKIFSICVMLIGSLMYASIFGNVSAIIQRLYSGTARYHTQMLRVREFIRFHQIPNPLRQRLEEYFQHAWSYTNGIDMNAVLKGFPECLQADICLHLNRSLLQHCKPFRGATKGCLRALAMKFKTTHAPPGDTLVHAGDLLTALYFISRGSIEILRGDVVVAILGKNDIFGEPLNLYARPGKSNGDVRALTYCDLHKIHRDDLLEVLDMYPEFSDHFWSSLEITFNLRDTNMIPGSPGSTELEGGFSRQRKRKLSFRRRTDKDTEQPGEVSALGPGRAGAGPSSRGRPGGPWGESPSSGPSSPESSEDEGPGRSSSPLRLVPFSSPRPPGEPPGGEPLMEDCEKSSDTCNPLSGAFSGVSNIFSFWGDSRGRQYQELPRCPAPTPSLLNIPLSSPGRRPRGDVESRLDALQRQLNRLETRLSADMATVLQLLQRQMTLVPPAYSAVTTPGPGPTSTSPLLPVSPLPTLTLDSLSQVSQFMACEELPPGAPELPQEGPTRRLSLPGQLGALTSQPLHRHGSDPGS

Compound | Ki (Histamine H3 receptor [2]) | Activity (Rattus norvegicus [4]) | Ki (Histamine H3 receptor [5]) | concentration (Blood) | further results
Cc1nnc(-c2ccc(Oc3ccc4c(c3)CCN(C3CCC3)CC4)nc2)o1 | 0.501 nM | 84% | 0.158 nM | 2700 nM | ED50 (Rattus norvegicus [1]): 0.05 mg/kg; ED50 (Rattus norvegicus [3]): 0.42 mg/kg; Kp [6]: 2.8
Cc1noc(C)c1-c1ccc(Oc2ccc3c(c2)CCN(C2CCC2)CC3)nc1 | 2.51 nM | 48% | 0.501 nM |  | 
O=C(c1ccc(Oc2ccc3c(c2)CCN(C2CCC2)CC3)nc1)N1CCCC1 | 0.631 nM | 65% | 0.251 nM | 10 nM | Activity (Rattus norvegicus [7]): 78%; CLH (Liver microsome [8]): < 3 mL/min/g
O=C1CCCCN1c1ccc(Oc2ccc3c(c2)CCN(C2CCC2)CC3)nc1 | 2.51 nM | 10% | 0.316 nM |  | 
c1cnn(-c2ccc(Oc3ccc4c(c3)CCN(C3CCC3)CC4)nc2)c1 | 3.16 nM | 73% | 0.501 nM |  | 
CCNC(=O)c1ccc(Oc2ccc3c(c2)CCN(C2CCC2)CC3)cn1 | 3.98 nM | 62% | 0.631 nM |  | 
CNC(=O)c1ccc(Oc2ccc3c(c2)CCN(C2CCC2)CC3)nn1 | 7.94 nM | 79% | 1.26 nM | 700 nM | ED50 (Rattus norvegicus [1]): 0.33 mg/kg; ED50 (Rattus norvegicus [3]): 0.85 mg/kg; Kp [6]: 2.8
CCN(C)C(=O)c1ccc(Oc2ccc3c(c2)CCN(C2CCC2)CC3)nc1 | 10 nM | 56% | 0.631 nM | 270 nM | Kp at 1 h [9]: 1; Activity (Rattus norvegicus [7]): 94%; CLH (Liver microsome [8]): < 3 mL/min/g
O=C1CCCN1c1ccc(Oc2ccc3c(c2)CCN(C2CCCC2)CC3)nc1 | 0.794 nM | 88% | 0.126 nM | 550 nM | ED50 (Rattus norvegicus [1]): 0.04 mg/kg; ED50 (Rattus norvegicus [3]): 0.1 mg/kg; Kp [6]: 1
O=C1CCN1c1ccc(Oc2ccc3c(c2)CCN(C2CCC2)CC3)nc1 | 0.2 nM |  | 0.0794 nM |  | Activity (Rattus norvegicus [10]): 21%
CC1CCC(=O)N1c1ccc(Oc2ccc3c(c2)CCN(C2CCC2)CC3)nc1 (stereo unspecified) | 2.51 nM | 52% | 0.316 nM |  | 
c1ccc(Oc2ccc3c(c2)CCN(C2CCC2)CC3)nc1 |  |  | 0.794 nM |  | 
CNC(=O)c1ccc(Oc2ccc3c(c2)CCN(C2CCCC2)CC3)nc1 |  | 61% | 0.501 nM |  | 
CNC(=O)c1ccc(Oc2ccc3c(c2)CCN(C2CCC2)CC3)nc1 [GSK189254] | 2.63 nM | 100% | 0.2 nM | 880 nM | Ki (Histamine H3 receptor [11]): 0.676 nM; ED50 (Rattus norvegicus [1]): 0.05 mg/kg; inhibition at 10 µM (hERG (KCNH2)): 36%; IC50 [12]: > 10000 nM; Kp at 1 h [9]: 1.3; ED50 (Rattus norvegicus [3]): 0.17 mg/kg; solubility [13]: > 10000 µg/mL; CLH (Liver microsome [14]): 0.5 mL/min/g; Ki (Histamine H1 receptor): > 2510 nM; Ki (Histamine H4 receptor): > 3160 nM; Activity (Rattus norvegicus [7]): 100%; Ki (Histamine H2 receptor): > 3160 nM; CLH (Liver microsome [8]): 0.5 mL/min/g
NC(=O)c1ccc(Oc2ccc3c(c2)CCN(C2CCC2)CC3)nc1 | 2 nM | 81% | 0.501 nM |  | CLH (Liver microsome [8]): < 3 mL/min/g
CNC(=O)c1ccc(Oc2ccc3c(c2)CCN(C2CCC2)CC3)cc1 | 5.01 nM | 68% | 0.501 nM | 540 nM | Kp [6]: 2.5
